In patent US9670227B2, “Thienopyrimidine derivatives, a process for their preparation and pharmaceutical compositions containing them” (LES LABORATOIRES SERVIER, priority 2013, dated 2017):
Like-named read-outs stand apart in the source and are kept apart here.

What was measured:
[1] = test system: H929 multiple myeloma tumour line; experiment: In vitro cytotoxicity, Microculture Tetrazolium Assay; type: cell-based; conditions: H929 cells, 48 hours exposure, MTT, read-out: IC50 (μM) MTT H929
Procedure: The cytotoxicity studies were carried out on the H929 multiple myeloma tumour line.
The cells are distributed onto microplates and exposed to the test compounds for 48 hours.

Mcl-1 protein = Mcl-1 protein (UniProtKB primary accession number: Q07820) (Homo sapiens, UniProt Q07820); experiment: Inhibition of Mcl-1 by fluorescence polarisation, Method 1; type: binding; conditions: fluorescence polarisation test; Method 2 values are underlined in the patent (underlining not visible here); read-out: IC50 (M) Mcl-1 FP
Procedure, shortened: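 Binding was measured as fluorescence polarisation of a fluorescein-labelled ligand (1 nM) displaced from Mcl-1 (5 nM), both final. Compounds ran as 11-point series with final DMSO at 5%.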

Sequence of Mcl-1 protein (Q07820 whole entry): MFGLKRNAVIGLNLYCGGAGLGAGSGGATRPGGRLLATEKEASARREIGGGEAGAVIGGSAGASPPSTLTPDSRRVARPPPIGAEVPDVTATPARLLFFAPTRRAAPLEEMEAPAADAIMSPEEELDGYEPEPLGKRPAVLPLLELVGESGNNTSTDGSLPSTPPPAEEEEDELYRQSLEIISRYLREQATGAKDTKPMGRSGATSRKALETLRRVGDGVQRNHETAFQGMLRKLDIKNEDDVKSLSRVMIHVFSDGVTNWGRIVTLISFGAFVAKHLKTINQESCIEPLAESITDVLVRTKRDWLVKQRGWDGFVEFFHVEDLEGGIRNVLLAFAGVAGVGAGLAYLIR

Row | Compound | IC50 (Mcl-1 protein) | IC50 ([1]; Homo sapiens, NCI-H929, 48 h) | IC50 [1]
1 | Cc1c(-c2c(-c3ccco3)sc3ncnc(OC(Cc4ccccc4OCC(=O)Nc4ccccc4)C(=O)O)c23)ccc(OCCN2CCN(C)CC2)c1Cl [Example 219, (2R)-2-{[(5Sa)-5-{3-chloro-2-methyl-4-[2-(4-methylpiperazin-1-yl)ethoxy]phenyl}-6-(furan-2-yl)thieno[2,3-d]pyrimidin-4-yl]oxy}-3-{2-[2-oxo-2-(phenylamino)ethoxy]phenyl}propanoic acid] | 9.9e-09 M | 0.191 µM | 
2 | Cc1c(-c2c(-c3ccco3)sc3ncnc(OC(Cc4ccccc4OCc4cc(Cl)ccn4)C(=O)O)c23)ccc(OCCN2CCN(C)CC2)c1Cl [Example 222, (2R)-2-{[(5Sa)-5-{3-chloro-2-methyl-4-[2-(4-methylpiperazin-1-yl)ethoxy]phenyl}-6-(furan-2-yl)thieno[2,3-d]pyrimidin-4-yl]oxy}-3-{2-[(4-chloropyridin-2-yl)methoxy]phenyl}propanoic acid] | 7.4e-09 M | 0.314 µM | 
3 | COc1ccnc(COc2ccccc2CC(Oc2ncnc3sc(-c4ccco4)c(-c4ccc(OCCN5CCN(C)CC5)c(Cl)c4C)c23)C(=O)O)c1 [Example 223, (2R)-2-{[(5Sa)-5-{3-chloro-2-methyl-4-[2-(4-methylpiperazin-1-yl)ethoxy]phenyl}-6-(furan-2-yl)thieno[2,3-d]pyrimidin-4-yl]oxy}-3-{2-[(4-methoxypyridin-2-yl)methoxy]phenyl}propanoic acid] | 1.4e-08 M | 0.346 µM | 
4 | Cc1c(-c2c(-c3ccco3)sc3ncnc(O[C@H](Cc4ccccc4OCc4cc(-c5ccccc5)ncn4)C(=O)O)c23)ccc(OCCN2CCN(C)CC2)c1Cl [Example 224, (2R)-2-{[(5Sa)-5-{3-chloro-2-methyl-4-[2-(4-methylpiperazin-1-yl)ethoxy]phenyl}-6-(furan-2-yl)thieno[2,3-d]pyrimidin-4-yl]oxy}-3-{2-[(6-phenylpyrimidin-4-yl)methoxy]phenyl}propanoic acid] | 3.7e-09 M |  | 0.049 µM
5 | Cc1c(-c2c(-c3ccco3)sc3ncnc(O[C@H](Cc4ccccc4OCc4cc(C5CC5)nn4C)C(=O)O)c23)ccc(OCCN2CCN(C)CC2)c1Cl [Example 226, (2R)-2-{[(5Sa)-5-{3-chloro-2-methyl-4-[2-(4-methylpiperazin-1-yl)ethoxy]phenyl}-6-(furan-2-yl)thieno[2,3-d]pyrimidin-4-yl]oxy}-3-{2-[(3-cyclopropyl-1-methyl-1H-pyrazol-5-yl)methoxy]phenyl}propanoic acid] | 2.4e-08 M |  | 0.311 µM

More lines, main results first:

Row | IC50 (Mcl-1 protein) | Compound | IC50 ([1]; Homo sapiens, NCI-H929, 48 h) | IC50 [1]
6 | 9e-09 M | CCCCNC(=O)COc1ccccc1CC(Oc1ncnc2sc(-c3ccco3)c(-c3ccc(OCCN4CCN(C)CC4)c(Cl)c3C)c12)C(=O)O [Example 220, (2R)-3-{2-[2-(butylamino)-2-oxoethoxy]phenyl}-2-{[(5Sa)-5-{3-chloro-2-methyl-4-[2-(4-methylpiperazin-1-yl)ethoxy]phenyl}-6-(furan-2-yl)thieno[2,3-d]pyrimidin-4-yl]oxy}propanoic acid] | 0.277 µM | 
7 | 6.3e-09 M | Cc1c(-c2c(-c3ccco3)sc3ncnc(OC(Cc4ccccc4OCC(F)(F)F)C(=O)O)c23)ccc(OCCN2CCN(C)CC2)c1Cl [Example 221, (2R)-2-{[(5Sa)-5-{3-chloro-2-methyl-4-[2-(4-methylpiperazin-1-yl)ethoxy]phenyl}-6-(furan-2-yl)thieno[2,3-d]pyrimidin-4-yl]oxy}-3-[2-(2,2,2-trifluoroethoxy)phenyl]propanoic acid] | 0.059 µM | 
8 | 8.4e-09 M | Cc1cc(COc2ccccc2CC(Oc2ncnc3sc(-c4ccco4)c(-c4ccc(OCCN5CCN(C)CC5)c(Cl)c4C)c23)C(=O)O)n(C)n1 [Example 225, (2R)-2-{[(5Sa)-5-{3-chloro-2-methyl-4-[2-(4-methylpiperazin-1-yl)ethoxy]phenyl}-6-(furan-2-yl)thieno[2,3-d]pyrimidin-4-yl]oxy}-3-{2-[(1,3-dimethyl-1H-pyrazol-5-yl)methoxy]phenyl}propanoic acid] | 0.105 µM | 
